{
  "source": "patent US20050003007A1",
  "about": "“Method of sterilization of polymeric microparticles” (priority 2003, published 2005)",
  "test_system": "retinitis pigmentosa",
  "experiment": "Subconjunctival injection of tazarotene microsphere suspension into a patient suffering from retinitis pigmentosa",
  "format": "in vivo",
  "conditions": "tazarotene 1 mg in poly(lactide-co-glycolide) microsphere suspension, for the duration of treatment",
  "description": "A dose of tazarotene (1 mg) contained in the poly(lactide-co-glycolide) microsphere suspension of Example containing 1 is injected subconjunctivally into a patient suffering from retinitis pigmentosa.",
  "data": [
    {"smiles": "CCOC(=O)c1ccc(C#Cc2ccc3c(c2)C(C)(C)CCS3)nc1", "note": "[tazarotene]", "values": [
      {"measurement": "vision", "result": "Maintenance of vision or a slowing of the progression of vision loss"}
    ]}
  ]
}
